Measured values published in ChEMBL document CHEMBL4196200 (J Med Chem, 2018).

Legend:
[1] = target: T1, Oxytocin receptor (Homo sapiens) (UniProt P30559); test: Agonist activity at human OTR receptor expressed in CHO cells assessed as increase in myo-inositol 1-phosphate accumulation at 1 uM by IP-One assay relative to OT; assay type: functional, cell-based
T1 sequence (whole entry): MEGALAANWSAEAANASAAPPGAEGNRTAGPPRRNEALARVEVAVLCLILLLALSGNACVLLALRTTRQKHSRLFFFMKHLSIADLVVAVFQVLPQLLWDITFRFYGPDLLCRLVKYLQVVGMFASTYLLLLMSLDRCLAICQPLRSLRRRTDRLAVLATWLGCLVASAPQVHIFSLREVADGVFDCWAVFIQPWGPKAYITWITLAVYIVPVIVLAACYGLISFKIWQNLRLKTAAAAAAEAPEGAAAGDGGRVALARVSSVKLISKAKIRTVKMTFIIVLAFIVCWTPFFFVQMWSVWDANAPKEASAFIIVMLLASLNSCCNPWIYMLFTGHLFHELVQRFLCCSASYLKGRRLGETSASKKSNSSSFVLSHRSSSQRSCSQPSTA

Oxytocin receptor [2] = target: T2, Oxytocin receptor (Homo sapiens, UniProt P30559); test: Displacement of [3H]-AVP from human OXR receptor expressed in CHO cell membranes by radioligand binding assay
T2 sequence (P30559 whole entry): T1 sequence (whole entry)

[3] = target: T1, Oxytocin receptor (Homo sapiens); test: Antagonist activity at human OTR receptor expressed in CHO cells assessed as inhibition of OT-induced myo-inositol 1-phosphate accumulation by IP-One assay; assay type: functional, cell-based
Vasopressin V1a receptor [4] = target: T3, Vasopressin V1a receptor (Homo sapiens, UniProt P37288); test: Antagonist activity at human V1A receptor expressed in CHO cells assessed as inhibition of AVP-induced myo-inositol 1-phosphate accumulation by IP-One assay; assay type: functional, cell-based
Target sequence in this assay (P37288 whole entry, looked up): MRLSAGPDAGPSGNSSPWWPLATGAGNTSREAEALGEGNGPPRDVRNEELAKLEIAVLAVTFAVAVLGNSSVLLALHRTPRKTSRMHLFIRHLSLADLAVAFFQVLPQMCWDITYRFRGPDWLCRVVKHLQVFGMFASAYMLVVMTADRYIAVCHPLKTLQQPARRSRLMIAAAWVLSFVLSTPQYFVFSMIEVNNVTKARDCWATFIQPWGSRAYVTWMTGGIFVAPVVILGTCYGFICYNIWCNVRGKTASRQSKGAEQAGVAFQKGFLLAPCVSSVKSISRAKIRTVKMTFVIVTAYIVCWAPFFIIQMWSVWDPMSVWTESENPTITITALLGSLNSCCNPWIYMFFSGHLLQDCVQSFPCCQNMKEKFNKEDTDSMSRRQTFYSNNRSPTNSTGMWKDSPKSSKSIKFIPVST

Vasopressin V2 receptor [5] = target: T4, Vasopressin V2 receptor (Homo sapiens, UniProt P30518); test: Displacement of [3H]-AVP from human V2 receptor expressed in CHO cell membranes by radioligand binding assay
Vasopressin V1a receptor [6] = target: T3, Vasopressin V1a receptor; test: Agonist activity at human V1A receptor expressed in CHO cells assessed as increase in myo-inositol 1-phosphate accumulation at 1 uM by IP-One assay relative to AVP; assay type: functional, cell-based
Target sequence in this assay (P37288 whole entry, looked up): as above

Vasopressin V1a receptor [7] = target: T3, Vasopressin V1a receptor; test: Displacement of [3H]-AVP from human V1A receptor expressed in CHO cell membranes by radioligand binding assay
Target sequence in this assay (P37288 whole entry): as the sequence (P37288 whole entry, looked up) above

Vasopressin V2 receptor [8] = target: T4, Vasopressin V2 receptor; test: Agonist activity at human V2 receptor expressed in CHO cells assessed as increase in cAMP accumulation by cAMP dynamic 2 assay; assay type: functional, cell-based
[9] = target: T1, Oxytocin receptor (Homo sapiens); test: Antagonist activity at human OTR receptor expressed in CHO cells assessed as inhibition of OT-induced myo-inositol 1-phosphate accumulation at 1 uM by IP-One assay relative to OT; assay type: functional, cell-based
Vasopressin V1a receptor [10] = target: T3, Vasopressin V1a receptor; test: Antagonist activity at human V1A receptor expressed in CHO cells assessed as inhibition of AVP-induced myo-inositol 1-phosphate accumulation at 1 uM by IP-One assay relative to AVP; assay type: functional, cell-based
Target sequence in this assay (P37288 whole entry, looked up): as above

Vasopressin V2 receptor [11] = target: T4, Vasopressin V2 receptor; test: Antagonist activity at human V2 receptor expressed in CHO cells assessed as inhibition of AVP-induced cAMP accumulation by cAMP dynamic 2 assay; assay type: functional, cell-based
Homo sapiens [12] = species: Homo sapiens; test: Selectivity for human V1a receptor over human V2 receptor
Homo sapiens [13] = species: Homo sapiens; test: Selectivity for human OTR receptor over human V2 receptor
[14] = target: T1, Oxytocin receptor (Homo sapiens); test: Agonist activity at human OTR expressed in HEK cells assessed as increase in intracellular calcium flux incubated for 45 mins by Indo1-AM dye based fluorescence assay relative to OT; assay type: functional, cell-based
Oxytocin receptor [15] = target: T2, Oxytocin receptor; test: Agonist activity at human OTR expressed in HEK cells assessed as increase in intracellular calcium flux incubated for 45 mins by Indo1-AM dye based fluorescence assay; assay type: functional, cell-based
Vasopressin V1a receptor [16] = target: T3, Vasopressin V1a receptor; test: Displacement of DY647 from SNAP-tagged V1A receptor (unknown origin) expressed in HEK293 cells by TR-FRET assay; assay type: cell-based
Target sequence in this assay (P37288 whole entry): as the sequence (P37288 whole entry, looked up) above

Vasopressin V1a receptor [17] = target: T3, Vasopressin V1a receptor; test: Agonist activity at human V1A receptor expressed in HEK cells assessed as increase in intracellular calcium flux at 1 uM incubated for 45 mins by Indo1-AM dye based fluorescence assay relative to AVP; assay type: functional, cell-based
Target sequence in this assay (P37288 whole entry, looked up): as above

Vasopressin V2 receptor [18] = target: T4, Vasopressin V2 receptor; test: Displacement of DY647 from SNAP-tagged V2 receptor (unknown origin) expressed in HEK293 cells by TR-FRET assay; assay type: cell-based
Vasopressin V1a receptor [19] = target: T3, Vasopressin V1a receptor; test: Antagonist activity at human V1A receptor expressed in HEK cells assessed as inhibition of AVP-induced intracellular calcium flux incubated for 45 mins by Indo1-AM dye based fluorescence assay relative to AVP; assay type: functional, cell-based
Target sequence in this assay (P37288 whole entry): as the sequence (P37288 whole entry, looked up) above

[20] = target: T1, Oxytocin receptor (Homo sapiens); test: Antagonist activity at human OTR expressed in HEK cells assessed as inhibition of OT-induced intracellular calcium flux at 1 uM incubated for 45 mins by Indo1-AM dye based fluorescence assay relative to OT; assay type: functional, cell-based
Oxytocin receptor [21] = target: T2, Oxytocin receptor; test: Displacement of DY647 from SNAP-tagged OTR receptor (unknown origin) expressed in HEK293 cells by TR-FRET assay; assay type: cell-based

T4 sequence (P30518 whole entry): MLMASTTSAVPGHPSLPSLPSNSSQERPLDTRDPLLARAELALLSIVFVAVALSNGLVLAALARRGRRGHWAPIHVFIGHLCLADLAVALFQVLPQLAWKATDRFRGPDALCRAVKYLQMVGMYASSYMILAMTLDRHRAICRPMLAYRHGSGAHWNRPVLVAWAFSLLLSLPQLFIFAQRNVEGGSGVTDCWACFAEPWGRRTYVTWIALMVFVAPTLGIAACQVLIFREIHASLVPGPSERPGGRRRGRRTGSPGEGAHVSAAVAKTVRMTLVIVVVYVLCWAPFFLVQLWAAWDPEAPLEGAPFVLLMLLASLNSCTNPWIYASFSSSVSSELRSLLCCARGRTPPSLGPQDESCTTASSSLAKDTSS

Compound | Emax [1] | Ki (Oxytocin receptor [2]) | Kinact (Vasopressin V1a receptor [4]) | Ki (Vasopressin V2 receptor [5]) | Emax (Vasopressin V1a receptor [6]) | Ki (Vasopressin V1a receptor [7]) | inhibition [9] | inhibition (Vasopressin V1a receptor [10]) | also measured
CCCCc1ccc(C(=O)N2CCCCc3ccccc32)cc1 | < 10% | 37.4 nM | 421 nM | 52 nM | < 10% | 28 nM | – | – | Kinact [3]: 113 nM; Kact (Vasopressin V2 receptor [8]): 18 nM
C[N+](C)(C)c1ccc(C(=O)N2CCCCc3ccccc32)cc1 | < 10% | < 10 nM | – | > 1000 nM | < 10% | > 1000 nM | 19% | 15% | –
O=C(c1ccc(-c2cccnc2)cc1)N1CCCCc2ccccc21 | < 10% | 150 nM | 51 nM | 233 nM | < 10% | 67 nM | – | – | Kinact (Vasopressin V2 receptor [11]): 78 nM; Kinact [3]: 227 nM
CC(=O)Nc1ccc(C(=O)N2CCCCc3ccccc32)cc1 | < 10% | > 1000 nM | 305 nM | > 1000 nM | < 10% | 1080 nM | 32% | – | –
CCCc1ccc(C(=O)N2CCCCc3ccccc32)cc1 | < 10% | 104 nM | 184 nM | 121 nM | < 10% | 63 nM | – | – | Kinact [3]: 172 nM; Kact (Vasopressin V2 receptor [8]): 92 nM
CN(C)c1ccc(C(=O)N2CCCCc3ccccc32)cc1 | < 10% | > 1000 nM | 81 nM | 468 nM | < 10% | 82 nM | – | – | Kinact [3]: 186 nM; Kact (Vasopressin V2 receptor [8]): 80 nM
O=C(c1ccc(-c2ccccc2)cc1)N1CCCCc2ccccc21 | < 10% | 10.4 nM | – | 78 nM | < 10% | 2.28 nM | – | – | Kinact (Vasopressin V2 receptor [11]): 132 nM; Kinact [3]: 42 nM
O=C(c1ccc(-c2ncccn2)cc1)N1CCCCc2ccccc21 | < 10% | 340 nM | 177 nM | 334 nM | < 10% | 573 nM | 30.6% | – | –
O=C(c1ccc(Br)cc1)N1CCCCc2ccccc21 | < 10% | < 10 nM | 218 nM | 713 nM | < 10% | 504 nM | 20% | – | –
Cc1ccn(-c2ccc(C(=O)N3CCCC(N(C)C)c4ccccc43)cc2)n1 (stereo not given) | – | 1330 nM | – | > 1000 nM | < 10% | 741 nM | 21% | 15% | Selectivity ratio (Homo sapiens [12]): < 0.74
O=C(c1ccc(Cl)cc1)N1CCCCc2ccccc21 | < 10% | < 10 nM | 149 nM | 507 nM | < 10% | 556 nM | 24.1% | – | –
Cc1ccn(-c2ccc(C(=O)N3CCCC(=O)c4ccccc43)cc2)n1 | – | < 10 nM | – | > 1000 nM | < 10% | < 10 nM | – | 19% | –
Cc1ccn(-c2ccc(C(=O)N3CCCC(N(C)C)c4ccccc43)c(Cl)c2)n1 (stereo not given) | – | > 1000 nM | – | 331 nM | < 10% | < 10 nM | < 10% | < 10% | Kinact (Vasopressin V2 receptor [11]): 126 nM; Selectivity ratio (Homo sapiens [12]): > 30; Selectivity ratio (Homo sapiens [13]): > 3
O=C(c1ccc(I)cc1)N1CCCCc2ccccc21 | < 10% | 396 nM | 15 nM | 160 nM | < 10% | 48 nM | 36% | – | –
Cc1ccn(-c2ccc(C(=O)N3CCCCc4ccccc43)cc2)n1 | < 10% | 84 nM | 48 nM | 282 nM | < 10% | 34 nM | – | – | Selectivity ratio (Homo sapiens [12]): 0.12; Kinact [3]: 112 nM; Selectivity ratio (Homo sapiens [13]): 0.3; Kact (Vasopressin V2 receptor [8]): 13 nM
Cc1ccn(-c2ccc(C(=O)N3Cc4cnn(C)c4Nc4ccccc43)c(Cl)c2)n1 | – | – | – | – | < 10% | – | – | – | Selectivity ratio (Homo sapiens [12]): 0.93; Selectivity ratio (Homo sapiens [13]): 0.59; Kact (Vasopressin V2 receptor [8]): 8.4 nM
Cc1ccn(-c2ccc(C(=O)N3CCCC(O)c4ccccc43)cc2)n1 (stereo not given) | – | 686 nM | – | 1150 nM | < 10% | 164 nM | 45% | 69% | Selectivity ratio (Homo sapiens [12]): 0.14; Selectivity ratio (Homo sapiens [13]): 0.6
Cc1cc(C(=O)N2Cc3cnn(C)c3Nc3ccccc32)ccc1CNC(=O)N1CCC[C@H]1C(=O)N(C)C | – | – | – | – | – | – | – | – | Emax [14]: 34%; EC50 (Oxytocin receptor [15]): 300 nM; Ki (Vasopressin V1a receptor [16]): > 1000 nM; Emax (Vasopressin V1a receptor [17]): 5 to 10%; Ki (Vasopressin V2 receptor [18]): > 1000 nM; IC50 (Vasopressin V1a receptor [19]): 95 nM; inhibition [20]: 5 to 10%; Ki (Oxytocin receptor [21]): > 1000 nM
Nc1ccc(C(=O)N2CCCCc3ccccc32)cc1 | < 10% | < 10 nM | – | > 1000 nM | < 10% | 734 nM | 15% | 37% | –
Cc1ccn(-c2ccc(C(=O)N3CCCCCC3)c(Cl)c2)n1 | – | < 10 nM | – | < 10 nM | < 10% | < 10 nM | < 10% | < 10% | –
Cc1ccn(-c2ccc(C(=O)N3CCCC(O)c4ccccc43)c(Cl)c2)n1 (stereo not given) | – | 800 nM | – | 100 nM | < 10% | < 10 nM | 28% | 26% | Selectivity ratio (Homo sapiens [12]): > 100; Selectivity ratio (Homo sapiens [13]): 8; Kact (Vasopressin V2 receptor [8]): 28 nM
Cc1ccn(-c2ccc(C(=O)N3CCCC(=O)c4ccccc43)c(Cl)c2)n1 | – | < 10 nM | – | < 10 nM | < 10% | < 10 nM | 14% | < 10% | –
